# Data as given in patent US10662164B2, “Non-beta lactam antibiotics” (University of Notre Dame du Lac, priority 2014, dated 2020).
# Key:
# Full PK study [1] = format: in vivo, mouse; details: compound 1, oral; dose not given
# S. aureus ATCC 29213 = experiment: Minimal-bactericidal concentration (MBC) determination; format: cell-based, Staphylococcus aureus; details: MSSA strain
# Method: (§1) The MBC of compound 75b was determined using S. aureus ATCC 29213, S. aureus […], and E. faecium NCTC 7171.
# (§2) The MBC of indolyl antibiotic 75b was determined by incubation of 1.5×10^5 cells of S. aureus ATCC29213, S. aureus ATCC 27660, and E. faecium NCTC7171 at MIC, 2×MIC, and 4×MIC. Aliquots of 10 μL (corresponding to 1.5×10^4 cells) were plated on agar plates, incubated for 48 h, and colonies were counted in the presence and absence of […].
# S. aureus ATCC 277660 = experiment: as above; format: cell-based, Staphylococcus aureus
# Method: as §1, §2
# E. faecium NCTC 7171 = experiment: as above; format: cell-based, Enterococcus faecium
# Method: as §1, §2
# Full PK study [2] = format: in vivo, mouse
# Method: A full PK study was conducted with indole 75b after iv and oral (po) administration. This compound had the lowest in vitro toxicity and the highest efficacy in the mouse peritonitis infection model.
# Female ICR mice (6-8 weeks old, ˜20-g body weight) were used for the PK and peritonitis studies. Animals were purchased from Harlan Laboratories, Inc. (Indianapolis, Ind., USA) and given Teklad 2019 Extruded Rodent Diet and water ad libitum. Mice were maintained in polycarbonate shoebox cages with ¼″ corncob (The Andersons Inc., Maumee, Ohio) and Alpha-dri (Sheperd Specialty Papers, Inc., Richland, Mich.) bedding under 12-h light/12-h dark cycle at 72±2° F.
# Antibiotic 75b was dissolved in 10% DMSO/25% Tween-80/65% water at a concentration of 5 mg/mL. Mice (n=3 per time point per route of administration) were administered 100 μL of 75b (equivalent to 20 mg/kg) iv. A separate group of mice was given 100 μL of 75b (equivalent to 20 mg/kg) orally (po). Terminal blood was collected in heparin by cardiac puncture at 2, 5, 10, 20, and 40 min, and at 1, 2, 3, 4, 8, and 24 h after iv administration and at 0.5, 1, 2, 3, 4, 6, 9, 24, and 36 h after po administration. Blood was centrifuged at 1200 g for 10 min to obtain plasma. Plasma samples were stored at −80° C. until analysis.
# Plasma ([…], aliquot) was mixed with 100 μL of acetonitrile containing internal standard (final concentration 8 μg/mL). After centrifugation at 10000 g for 10 min, the supernatant was analyzed by ultraperformance liquid chromatography (UPLC) with UV detection at 285 nm. A Waters Acquity UPLC System (Waters Corporation, Milford, Mass., USA), consisting of a binary pump, an autosampler, a column heater, and a photodiode array detector was used. An Acquity UPLC C18 1.7 μm, 2.1 mm i.d.×50 mm column was used. Elution was at 0.5 mL/min with 70% A/30% B for 2 min, followed by a 10-min linear gradient to 10% A/90% B, then 70% A/30% B for 2 min, where A=0.1% formic acid/water and B=0.1% formic acid/acetonitrile. Monitoring was by UV detection at 285 nm. Calibration curves for each compound were prepared in control plasma containing internal standard. The concentrations in the PK samples were obtained using peak area ratio to the internal standard and the calibration curve regression analysis parameters. The methods were linear from 0.01 to 100 μg/mL; coefficients of determination R^2 range from 0.98 to 0.99.
# The area under the curve (AUC), clearance (CL), volume of distribution (Vd), and terminal half-life were calculated using Phoenix WinNonlin 6.3 (Certara LP, St Louis, Mo., USA) noncompartmental analysis using uniform weighing. Half-lives were estimated from the linear portion of the initial or terminal phase of the concentration-time data by linear regression, where the slope of the line was the rate constant k and t1/2=ln 2/k.
smiles,measurement,setting,value
Oc1ccc(-c2nc(-c3ccc(Oc4ccc(C(F)(F)F)cc4)cc3)no2)cc1 [Compound 1],t1/2abs,Full PK study [1],3.3 h
"FC(F)(F)c1ccc(Oc2ccc(-c3noc(-c4ccc5[nH]ccc5c4)n3)cc2)cc1 [Compound 75b, 5-(1H-Indol-5-yl)-3-(4-(4-(trifluoromethyl)phenoxy)phenyl)-1,2,4-oxadiazole]",MBC relative to MIC,S. aureus ATCC 29213,the same as the MIC value
same,"MBC, fold above the MIC",S. aureus ATCC 277660,2 fold
same,"MBC, fold above the MIC",E. faecium NCTC 7171,2 fold
same,AUC0-24 h,"Full PK study [2]; 20 mg/kg iv, mice",3140 µg·min/mL
same,AUC0-∞,"Full PK study [2]; 20 mg/kg iv, mice",3520 µg·min/mL
same,CL,"Full PK study [2]; 20 mg/kg iv, mice",5.68 mL/min/kg
same,Vd,"Full PK study [2]; 20 mg/kg iv, mice",4.73 L/kg
same,t1/2α,"Full PK study [2]; 20 mg/kg iv, mice",t1/2α = 0.54 min
same,t1/2β (terminal half-life),"Full PK study [2]; 20 mg/kg iv, mice",9.6 h
same,F (oral bioavailability),"Full PK study [2]; 20 mg/kg po vs iv, mice",97%
same,AUC0-24 h,"Full PK study [2]; 20 mg/kg po, mice",3060 µg·min/mL
same,AUC0-∞,"Full PK study [2]; 20 mg/kg po, mice",4060 µg·min/mL
same,Cmax,"Full PK study [2]; 20 mg/kg po, mice",2340 ng/mL
same,Tmax,"Full PK study [2]; 20 mg/kg po, mice",6 h
same,t1/2dist,"Full PK study [2]; 20 mg/kg po, mice",t1/2dist = 15.9 h
same,t1/2elim (terminal half-life),"Full PK study [2]; 20 mg/kg po, mice",18.6 h
same,"clearance, fold lower than 1",Full PK study [2]; 75b vs compound 1,3 fold
same,"volume of distribution, fold higher than 1",Full PK study [2]; 75b vs compound 1,13 fold
